Converted amounts (≈) assume the structure as drawn.
Experiments:
Format in all cases: functional
Enterococcus faecalis = experiment: Antibacterial activity against Enterococcus faecalis C21560 by turbidity method; conditions: read-out: MIC100
Staphylococcus aureus [1] = experiment: Antibacterial activity against Staphylococcus aureus MB2865 by turbidity method; conditions: read-out: MIC100
Staphylococcus aureus [2] = experiment: Antibacterial activity against Staphylococcus aureus MB2865 infected in iv dosed mouse assessed as >= log10 cfu kidney burden reduction administered bid after 24 hrs
Streptococcus pneumoniae = experiment: Antibacterial activity against Streptococcus pneumoniae CL2883 by turbidity method; conditions: read-out: MIC100
Staphylococcus aureus [3] = experiment: Ratio of vancomycin ED99 to compound ED99 for Staphylococcus aureus MB2865 infected in iv dosed mouse
Staphylococcus aureus [4] = experiment: Antibacterial activity against Staphylococcus aureus MB2865 infected in mouse assessed as log kidney burden reduction administered at 4 mg/kg, iv bid after 24 hrs relative to control

Structure (SMILES) | MIC (Enterococcus faecalis) [µg/mL] | MIC (Staphylococcus aureus [1]) [µg/mL] | MIC (Streptococcus pneumoniae) [µg/mL] | ED99 (Staphylococcus aureus [2]) [mg/kg] | Ratio (Staphylococcus aureus [3]) | CFU (Staphylococcus aureus [4])
CO/C(C)=C1/NC(=O)[C@H]([C@@H](C)O)NC(=O)c2csc(n2)-c2cc(O)c(-c3nc(CNC(=O)CN4CCN(C)CC4)cs3)nc2-c2csc(n2)[C@@H]2COC(=O)c3c4c5c(cccc5n3O)COC(=O)[C@@H](O[C@H]3C[C@](C)(O)[C@H](N(C)C)[C@H](C)O3)[C@@H](OC4)[C@H](NC(=O)c3csc1n3)c1nc(cs1)C(=O)N2 | 0.09 (≈ 0.0602 µM) | 0.0375 (≈ 0.0251 µM) | 0.0007 (≈ 0.000468 µM) | 0.28 | – | 1.08
CO/C(C)=C1/NC(=O)[C@H]([C@@H](C)O)NC(=O)c2csc(n2)-c2cc(O)c(-c3nc(CNC(=O)CN4CCOCC4)cs3)nc2-c2csc(n2)[C@@H]2COC(=O)c3c4c5c(cccc5n3O)COC(=O)[C@@H](O[C@H]3C[C@](C)(O)[C@H](N(C)C)[C@H](C)O3)[C@@H](OC4)[C@H](NC(=O)c3csc1n3)c1nc(cs1)C(=O)N2 | 0.015 (≈ 0.0101 µM) | 0.0075 (≈ 0.00506 µM) | 0.00046 (≈ 0.00031 µM) | >0.5 | – | –
CO/C(C)=C1/NC(=O)[C@H]([C@@H](C)O)NC(=O)c2csc(n2)-c2cc(O)c(-c3nc(CNC(=O)CN(C)C)cs3)nc2-c2csc(n2)[C@@H]2COC(=O)c3c4c5c(cccc5n3O)COC(=O)[C@@H](O[C@H]3C[C@](C)(O)[C@H](N(C)C)[C@H](C)O3)[C@@H](OC4)[C@H](NC(=O)c3csc1n3)c1nc(cs1)C(=O)N2 | 0.25 (≈ 0.174 µM) | 0.06 (≈ 0.0417 µM) | 0.0075 (≈ 0.00521 µM) | >0.5 | – | –
CO/C(C)=C1/NC(=O)[C@H]([C@@H](C)O)NC(=O)c2csc(n2)-c2cc(O)c(-c3nc(CNCCO)cs3)nc2-c2csc(n2)[C@@H]2COC(=O)c3c4c5c(cccc5n3O)COC(=O)[C@@H](O[C@H]3C[C@](C)(O)[C@H](N(C)C)[C@H](C)O3)[C@@H](OC4)[C@H](NC(=O)c3csc1n3)c1nc(cs1)C(=O)N2 | 0.06 (≈ 0.0429 µM) | 0.03 (≈ 0.0215 µM) | 0.00046 (≈ 0.000329 µM) | 0.32 | – | –
CN[C@H](CC(C)C)C(=O)N[C@H]1C(=O)N[C@@H](CC(N)=O)C(=O)N[C@H]2C(=O)N[C@H]3C(=O)N[C@H](C(=O)N[C@H](C(=O)O)c4cc(O)cc(O)c4-c4cc3ccc4O)[C@H](O)c3ccc(c(Cl)c3)Oc3cc2cc(c3O[C@@H]2O[C@H](CO)[C@@H](O)[C@H](O)[C@H]2O[C@H]2C[C@](C)(N)[C@H](O)[C@H](C)O2)Oc2ccc(cc2Cl)[C@H]1O [VANCOMYCIN] | – | – | – | 0.17 | – | –

Second part, led by results:

MIC (Enterococcus faecalis) [µg/mL] | MIC (Staphylococcus aureus [1]) [µg/mL] | MIC (Streptococcus pneumoniae) [µg/mL] | Structure (SMILES) | ED99 (Staphylococcus aureus [2]) [mg/kg] | Ratio (Staphylococcus aureus [3]) | CFU (Staphylococcus aureus [4])
0.12 (≈ 0.0802 µM) | 0.06 (≈ 0.0401 µM) | 0.0075 (≈ 0.00501 µM) | CO/C(C)=C1/NC(=O)[C@H]([C@@H](C)O)NC(=O)c2csc(n2)-c2cc(O)c(-c3nc(CNC(=O)CCN4CCOCC4)cs3)nc2-c2csc(n2)[C@@H]2COC(=O)c3c4c5c(cccc5n3O)COC(=O)[C@@H](O[C@H]3C[C@](C)(O)[C@H](N(C)C)[C@H](C)O3)[C@@H](OC4)[C@H](NC(=O)c3csc1n3)c1nc(cs1)C(=O)N2 | >0.5 | – | –
0.25 (≈ 0.17 µM) | 0.06 (≈ 0.0409 µM) | 0.0038 (≈ 0.00259 µM) | CO/C(C)=C1/NC(=O)[C@H]([C@@H](C)O)NC(=O)c2csc(n2)-c2cc(O)c(-c3nc(CNC(=O)C(C)NC(N)=O)cs3)nc2-c2csc(n2)[C@@H]2COC(=O)c3c4c5c(cccc5n3O)COC(=O)[C@@H](O[C@H]3C[C@](C)(O)[C@H](N(C)C)[C@H](C)O3)[C@@H](OC4)[C@H](NC(=O)c3csc1n3)c1nc(cs1)C(=O)N2 (some centres undefined) | 0.02 | 200 | –
0.03 (≈ 0.0207 µM) | 0.0225 (≈ 0.0156 µM) | 0.0007 (≈ 0.000484 µM) | CO/C(C)=C1/NC(=O)[C@H]([C@@H](C)O)NC(=O)c2csc(n2)-c2cc(O)c(-c3nc(CNCc4cncnc4)cs3)nc2-c2csc(n2)[C@@H]2COC(=O)c3c4c5c(cccc5n3O)COC(=O)[C@@H](O[C@H]3C[C@](C)(O)[C@H](N(C)C)[C@H](C)O3)[C@@H](OC4)[C@H](NC(=O)c3csc1n3)c1nc(cs1)C(=O)N2 | 0.13 | – | –
0.0075 (≈ 0.00542 µM) | 0.03 (≈ 0.0217 µM) | 0.00095 (≈ 0.000687 µM) | CO/C(C)=C1/NC(=O)[C@H]([C@@H](C)O)NC(=O)c2csc(n2)-c2cc(O)c(-c3nc(CN(C)C)cs3)nc2-c2csc(n2)[C@@H]2COC(=O)c3c4c5c(cccc5n3O)COC(=O)[C@@H](O[C@H]3C[C@](C)(O)[C@H](N(C)C)[C@H](C)O3)[C@@H](OC4)[C@H](NC(=O)c3csc1n3)c1nc(cs1)C(=O)N2 | >0.5 | – | –
0.06 (≈ 0.0443 µM) | 0.077 (≈ 0.0568 µM) | 0.00047 (≈ 0.000347 µM) | CO/C(C)=C1/NC(=O)[C@H]([C@@H](C)O)NC(=O)c2csc(n2)-c2cc(O)c(-c3nc(CN)cs3)nc2-c2csc(n2)[C@@H]2COC(=O)c3c4c5c(cccc5n3O)COC(=O)[C@@H](O[C@H]3C[C@](C)(O)[C@H](N(C)C)[C@H](C)O3)[C@@H](OC4)[C@H](NC(=O)c3csc1n3)c1nc(cs1)C(=O)N2 | >0.5 | – | –

Reference: ChEMBL document CHEMBL2311426, “Synthesis and antibacterial activity of novel water-soluble nocathiacin analogs” (Bioorg Med Chem Lett, 2013)
